For 13 molecules, IC50 results are on record in ChEMBL document CHEMBL1150280, “Mono-tetrahydrofuran annonaceous acetogenins from Annona squamosa as cytotoxic agents and calcium ion chelators” (J Nat Prod, 2008).

Where only a bound is given, the exact number is not on record here.

One assay relates to MCF7. Kind of assay: cells. The following applies: Homo sapiens, MCF7, 72 h.
Assay [1] in a line: Cytotoxicity against human Hep3B cells after 3 days by MTT assay. The following applies: 72 h. For orientation: Formazan colour is commonly taken as a measure of viable cells.
A further assay concerns A549. Kind of assay: Cytotoxicity against human A549 cells after 3 days by MTT assay. The following applies: A549, 72 h.
The subject of the next assay is HepG2. Briefly: Cytotoxicity against human HepG2 cells after 3 days by MTT assay. The following applies: HepG2, 72 h.
The next assay has as its system MDA-MB-231. Kind of assay: cells. The following applies: Homo sapiens, MDA-MB-231, 72 h.

Description for MCF7: Cytotoxicity against human MCF7 cells after 3 days by MTT assay
Description for MDA-MB-231: Cytotoxicity against human MDA-MB-231 cells after 3 days by MTT assay

One may read the IC50 as the concentration at which inhibition is half-maximal. In turn, `CCCCCCCCCC[C@@H](O)[C@H]1CC[C@@H]([C@@H](O)CCCCCCCCCCCCCCC2=C[C@H](C)OC2=O)O1` gave a half-maximal inhibitory concentration (IC50) in the assay on MCF7 of 30.7 µM.
In the case of `CCCCCCCCCC/C=C\CC[C@@H](O)[C@H]1CC[C@H]([C@H](O)CCCCCCCCCCCCC2=C[C@H](C)OC2=O)O1` [BULLATENCIN], the midpoint of inhibition in assay [1], the IC50, lay at 31.4 µM.
Turning to `CCCCCCCCCC[C@@H](O)[C@H]1CC[C@H]([C@H](O)CCCCCCCCCCCCCCCCC2=C[C@H](C)OC2=O)O1`, half-maximal inhibition with MCF7 (IC50) required 3.31 µM.
For `CCCCCCCCCCCCCC[C@@H](O)[C@H]1CC[C@H]([C@H](O)CCCCCCCCCCCCC2=C[C@H](C)OC2=O)O1`, it took 28.3 µM to reach half-maximal inhibition in the assay on MCF7 (IC50).
Consider `CCCCCCC(O)CCC[C@H](O)[C@H]1CC[C@H]([C@H](O)CC[C@@H](O)[C@H](O)CCCCCCCCCCCCC2=C[C@H](C)OC2=O)O1` (stereo not given in full) [SQUADIOLIN A], for which the half-inhibitory concentration (IC50) was 2.83 µM in the assay with MCF7; below 200 nM in the assay with A549; 3.52 µM in assay [1]; 5.6 nM with HepG2; 0.63 µM with MDA-MB-231.
For the molecule `CCCCCCCCCCCC[C@H](O)[C@H]1CC[C@@H]([C@@H](O)CCCCCCCCCCCCC2=C[C@H](C)OC2=O)O1` [SQUAFOSACIN F], the half-maximal inhibitory concentration (IC50) in the assay with MCF7 was 35.1 µM; with MDA-MB-231, above 36 µM.
For `CCCCCCCCCCCC[C@H](O)[C@@H](O)CCCC[C@@H](O)[C@H]1CC[C@H](CCCCCCCC(O)CC2=C[C@H](C)OC2=O)O1` (stereo not given in full) [SQUADIOLIN C], the IC50 in the assay with MCF7 is 3.62 µM; with A549 it was 8110 nM; with HepG2, 3480 nM; in the assay on MDA-MB-231, 14.5 µM.
As for `CCCCCCCCCC[C@@H](O)[C@H]1CC[C@H]([C@H](O)CCCCCC(O)CCCCCCCCC2=C[C@H](C)OC2=O)O1` (stereo not given in full) [SQUAFOSACIN C], the IC50 is 26.4 µM in the assay on MCF7; 21000 nM in the assay on A549; 14 µM in assay [1]; 19000 nM in the assay on HepG2; 18.1 µM in the assay on MDA-MB-231.
`CCCCCCCCCC[C@H](O)[C@@H](O)CC[C@H](O)[C@@H](O)CC[C@@H](O)[C@H]1CC[C@H](CCCCCCCCCC2=C[C@H](C)OC2=O)O1` [SQUADIOLIN B]: the IC50 was 5.47 µM in the assay with MCF7; 2750 nM in the assay on A549; 6.98 µM in assay [1]; 11 nM in the assay on HepG2; 0.28 µM in the assay on MDA-MB-231.
Turning to `CCCCCCC(O)C(O)CCCCCC[C@@H](O)[C@H]1CC[C@H]([C@H](O)CCCCCCCCCCCCC2=C[C@H](C)OC2=O)O1` (stereo not given in full) [SQUAFOSACIN B], the concentration for half-maximal inhibition (IC50) was 0.96 µM with MCF7; 660 nM in the assay on A549; 0.72 µM in assay [1]; 710 nM with HepG2; 17 µM in the assay on MDA-MB-231.
For `CCCCCCCCCC[C@H](O)[C@H]1CC[C@@H]([C@@H](O)CCCCCCCCCCCCCCCCC2=C[C@H](C)OC2=O)O1` [SQUAFOSACIN G], it took 29.8 µM to reach half-maximal inhibition in the assay on MCF7 (IC50). That is a double-digit micromolar value.
`CCCCCCCCCCCCC(O)C1CCC(C(O)CCCCCCCCCCCCCCC2=CC(C)OC2=O)O1` (stereo not given) came in with an IC50 in the assay with MCF7 of 8.11 µM. This IC50 is about 3.7-fold lower than that of the molecule before.
On to `CC(=O)O[C@H]1C(=O)[C@@]2(C)[C@H]([C@H](OC(=O)c3ccccc3)[C@]3(O)C[C@H](OC(=O)[C@H](O)[C@@H](NC(=O)c4ccccc4)c4ccccc4)C(C)=C1C3(C)C)[C@]1(OC(C)=O)CO[C@@H]1C[C@@H]2O` [PACLITAXEL], for which the IC50 was determined as 0.13 µM in assay [1], 46.8 nM in the assay on HepG2 and 0.0703 µM in the assay on MDA-MB-231.
